Assay results from EP0309120A2, “Atrial hypotensive peptide” (QUEEN'S UNIVERSITY AT KINGSTON, priority 1987, dated 1989).
Ends that are not written are not given here.

Legend:
[1] = system: Aortic rings (thoracic aortae); assay: Vasorelaxant activity on phenylephrine-contracted aortic rings; set-up: species or system New Zealand White rabbits
Procedure: Aortic rings (3-4mm) were cut from the thoracic aortae of New Zealand White rabbits. The rings were suspended in a 10 ml tissue bath containing Kreb's Ringer Solution, pH 7.4 at 37°C. The rings were maintained at about 70% of maximal contraction with phenylephrine in doses ranging from 1 x 10⁻⁶ to 5 x 10⁻⁸M. Vasorelaxant activity or peptides was tested by adding various concentrations of peptide to the bath.

bioassay rats = assay: Bolus injection into anesthetized bioassay rats: urinary and cardiovascular responses; type: in vivo, male Sprague-Dawley rats
Procedure: Experiments were performed using male Sprague-Dawley rats, ranging in weight from 270-362 g. The rats were anesthetized by an intraperitoneal injection of sodium pentobarbital (70 mg.kg-1; MTC Pharmaceuticals, Hamilton, Ont.). Additional small amounts of anesthetic were administered as required in the course of the experiment. […] After installing a tracheal cannula, a femoral vein was cannulated and a priming infusion of saline (0.9% NaCl) was administered over a 20 min period (1.1 ml); this was followed by a maintenance saline infusion of 1.2 ml.h-1. The femoral artery was then cannulated for blood pressure measurement (Statham pressure transducer, model P23Db). A catheter was also advanced via the right external jugular vein towards the right heart for bolus injections of vehicle, ANF or the atrial peptide of the present invention (AHP). After tying off the penis, the bladder was cannulated for urine collection. Rates were not used or experiments aborted if the urine became bloody. The EKG was recorded for determination of heart rate.
Urine was collected in preweighed vials and volume calculated by weighing. The time for sequential urine collections was 5 min or, increments of 4 min until there was enough urine volume for electrolyte determinations (0.25 ml or 16 drops). Rat kidneys were removed at the termination of the experiments so that urinary excretion measurements could be normalized for total kidney weight. Measurements of NA+ and K+ were obtained using ion specific electrodes and Cl- was obtained by coulometric titration.
Zero time was established by 40-60 mins from the beginning the priming saline infusion. The control measurements were carried out over 20 mins or, until there was sufficient urine collection for electrolyte determinations. A bolus injection of vehicle, rANP(99-126) or iso-rANP(1-46) or iso-rANP(17-46) was then administered into the jugular vein catheter and the catheter immediately cleared of remaining injectate by a secondary bolus of 0.2 ml saline. The rANP(99-126) was obtained from Armand-Frappier, Montreal. Cardiovascular measurements were analyzed at 5 min intervals during control and at 1, 5, 10, 15 and 20 mins following administration of injectate. […] Thus, residues 17-46 of the native peptide represent a functional, as well as structural, homologue of both ANP and BNP. Moreover, it would appear that residues 1-20 of iso-rANP(1-46) are not required for biological activity. […] It required twice the dose of iso-rANP(17-46) (1.5 nanomol) to produce equivalent average decreases in mean arterial blood pressure and heart rate as rANP(99-126) (0.7 nanomol). […] Variability of response of assay rats to injected peptides is evident from the rather larger variances (SEM).

[2] = system: antiserum to iso-rANP(1-20) (P2A); assay: Radioimmunoassay (RIA) with anti-P2A antiserum and 125I-P2A-Y tracer; type: binding, New Zealand white rabbits; conditions: antiserum used for the RIA
Source text: The procedure was repeated to produce the same 20 amino acid residue fragment with a tyrosine residue attached to the N-terminal serine. The 20-residue peptide (P2A) was mixed with Freund's complete adjuvant and injected subcutaneously into New Zealand white rabbits. After boosting at 5 weeks after the initial injection the rabbits were bled 1 week later. […] Tyrosinated P2A (P2A-Y) was iodinated using the chloramine T method and the iodinated tracer was purified by HPLC on a Waters µBondapak C₁₈ column. For radioimmunossay (RIA) the buffer contained 0.1M NaHPO₄ buffer, pH 7.4, 0.05M NaCl, 0.1% BSA and 0.02% […]. The RIA incubation mixture contained 3-100 pg of P2A in 100 µ l of buffer, 100 µl of diluted antiserum and 100 µl of ¹²⁵I-P2A-Y (approx. 8000 cpm). After incubation overnight at 4°C bound and free iodinated peptide were separated by second antibody precipitation using goat anti-rabbit - globulin. The sensitivity of the assay was 2-3 pg/tube with 50% displacement at 25-30 pg/tube.
The RIA was then used to monitor the purification of the peptide de novo from atrial extracts using gel-filtration and reverse-phase HPLC. The procedure used was essentially the same as the one briefly described above for the purification of ANP, except that the initial extraction and the gel-filtration stages were done in the presence of several protease inhibitors.

MAHSSSCFGEKIDRIGAVSRLGCDILLIAQ (cysteine pairing not given here) [iso-rANP(17-46), chemically synthesized peptide corresponding to residues 17-46 of iso-rANP(1-46)]
smooth muscle vaso-relaxant activity ([1]; rabbit aortic rings at about 70% of maximal contraction with phenylephrine, result in words): showed smooth muscle vaso-relaxant activity | higher dose required to produce the same relaxation obtained by 50 ng of rANP(99-126) ([1]; rabbit aortic rings, relative to 50 ng of rANP(99-126)): 20 fold | potency compared with ANP(99-126) ([1]; rabbit aortic rings, result in words): less potent | effect in increasing urinary volume as well as Na+, K+ and Cl- excretion (bioassay rats; 3.0 nanomol, four-fold larger dose than rANP(99-126), compared with rANP(99-126)): somewhat lesser effect | potency compared with rANP(99-126) (bioassay rats; as shown in Table 1, result in words): somewhat less than rANP(99-126) | dose to produce equivalent average decreases in mean arterial blood pressure and heart rate (bioassay rats; bolus into jugular vein catheter): 1.5 nmol | urinary responses (bioassay rats; dose 0.9 nmol): only a small effect in most rats | additional effect on cardiovascular responses (mean arterial blood pressure, heart rate) (bioassay rats; dose increased to 3.0 nanomol): no additional effect | diuretic, natriuretic, hypotensive and bradycardic responses (bioassay rats; injected into bioassay rats, result in words): elicited diuretic, natriuretic, hypotensive and bradycardic responses qualitatively similar to both the native peptide and rANP

ANP: atrial natriuretic peptide, length not specified at this place
cross-reaction with antiserum [2]: did not cross-react
